Values quoted from earlier work, collected in publication PMC10299363 (International Journal of Molecular Sciences, 2023).

How the values were obtained:
[1] = system: insulin secretion
[2] = system: chemically induced PDACs; conditions: subcutaneous injection, rats
Source text: The galaninergic system is also involved in tumorigenesis, the invasion/migration of tumor cells and angiogenesis, and has been correlated with the tumor stage, proliferation, metastasis, and recurrence rate. […] The inactivation of GAL2R by promoter hypermethylation decreased disease-free survival. GAL2R strongly exerted anti-tumor activity via two important mechanisms: (1) tumor cell cycle arrest mediated via the extracellular-regulated protein kinase-1/2 (ERK1/2)-dependent effects on the cyc ...

[3] = system: GAL2R
[4] = system: GAL3R
[5] = system: head and neck cancer; conditions: via activation of PBMCs

binding to GAL2R [3]	binding to GAL3R [4]	Substance	breakdown in vivo	effect on insulin secretion [1]	number of chemically induced PDACs [2]	effect in head and neck cancer [5]
–	–	linear angiotensin: linear angiotensin (ref 33: radioiodinated angiotensin II) (DRVYIHPF; Angiotensin-2; UniProt P01019 25-32, looked up)	broken down within a minute	–	–	–
binds	binds	galanin: 30 amino acid peptide that stimulates three subtype receptors (GAL1–3R)	–	strong inhibitory effects toward insulin secretion	reduced the number of chemically induced PDACs	pro-tumor effects
